Converted amounts (≈) assume the structure as drawn.
Experiment: Solubility of the compound
Format: physicochemical

| solubility [mg/mL] | Compound |
| --- | --- |
| 0.002 (≈ 5.23 µM) | O=C(O)c1ccc(-c2c[nH]c3ncc(-c4ccccc4)cc23)cc1C1CCCC1 [GSK-650394] |
| 0.038 (≈ 96.6 µM) | O=C(O)c1ccc(-c2ccnc3ccc(-c4ccccc4)cc23)cc1C1CCCC1 |
| 0.042 (≈ 110 µM) | O=C(O)c1ccc(-c2cnn3ccc(-c4ccccc4)cc23)cc1C1CCCC1 |
| 0.0015 (≈ 3.75 µM) | O=C(O)c1ccc(-c2csc3ncc(-c4ccccc4)cc23)cc1C1CCCC1 |
| 0.0704 (≈ 178 µM) | O=C(O)c1ccc(-c2ncnc3ccc(-c4ccccc4)cc23)cc1C1CCCC1 |

The next lines start with the compound.

| Compound | solubility [mg/mL] |
| --- | --- |
| Cn1ccc2c(-c3ccc(C(=O)O)c(C4CCCC4)c3)ccnc21 | 0.04 (≈ 125 µM) |
| O=C(O)c1ccc(-c2ccncn2)cc1C1CCCC1 | 0.0194 (≈ 72.3 µM) |
| O=C(O)c1ccc(-c2ccnc3ccccc23)cc1C1CCCC1 | 0.0644 (≈ 203 µM) |
| O=C(O)c1ccc(-c2ccnc(Nc3ccccc3)n2)cc1C1CCCC1 | 0.0106 (≈ 29.5 µM) |
| O=C(O)c1ccc(-c2ncnc3sccc23)cc1C1CCCC1 | 0.0626 (≈ 193 µM) |
